Format in all cases: in vivo, human
Experiment [1] can be described thus: Sweetness adjusting action on sucrose, aspartame, sucralose, glycyrrhizin (simultaneous intake). The conditions noted are these: sucrose 7.5 wt %, aspartame 494 ppm, sucralose 0.49 mM, glycyrrhizin 303 ppm, alone or containing 5 mM trans-3-octenyl sulfate, scale 0 to 15; for Sweetness intensity (mean) When drinking water after 30 seconds: 10 mL pure water 30 seconds after sample; for Sweetness intensity (mean) When drinking sample: 10 mL. The method, then:
To seven examiners, four kinds of 10 mL aqueous sucrose standard solutions (2.5, 5.0, 7.5 and 10.0 wt %) were presented. The examiners kept each of the solutions in their mouth for 5 seconds or so, and then spat the solution out, and were asked to consider the sweetness intensity at that time (0 to 15) to be 2.5, 5, 7.5 and 10, respectively. Next, the examiners kept 10 mL aqueous solution (7.5 wt %) of sucrose in their mouth for 5 seconds or so without knowing the kind and the concentration of the sweetener, and then spat the solution out, and compared the sweetness intensity at that time with that of the aqueous sucrose standard solution, and evaluated the sweetness intensity with a number in a range of 0 to 15. In addition, after 30 seconds, the examiners kept 10 mL pure water in their mouth, and then spat the solution out, and compared the sweetness intensity felt at that time with that of the aqueous sucrose standard solution, and evaluated the sweetness intensity in the same manner. Subsequently, the examiners were presented with 10 mL aqueous sucrose solution containing 5 mM trans-3-octenyl sulfate (7.5 wt %), and kept it in their mouth for 5 seconds or so, and then spat the solution out, and compared the sweetness intensity at that time with the sweetness intensity of the aqueous sucrose standard solution, and evaluated the sweetness intensity in the same manner. In addition, immediately after that, the examiners kept 10 mL pure water in their mouth for 5 seconds or so, and then spat the solution out, and compared the sweetness intensity at that time with that of the aqueous sucrose standard solution, and evaluated the sweetness intensity in the same manner. In addition, after 30 seconds, the examiners kept 10 mL pure water in their mouth, and then spat the solution out, and compared the sweetness intensity felt at that time with that of the aqueous sucrose standard solution, and evaluated the sweetness intensity in the same manner.
To seven examiners, 4 kinds of 10 mL aqueous sucrose standard solutions (2.5, 5.0, 7.5 and 10.0 wt %) were presented. The examiners kept each of the solutions in their mouth for 5 seconds or so, and then spat the solution out, and were asked to consider the sweetness intensity at that time (0 to 15) to be 2.5, 5, 7.5 and 10, respectively. Next, the examiners kept 10 mL aqueous solution of aspartame (494 ppm) in their mouth for 5 seconds or so without knowing the kind and the concentration of the sweetener, and then spat the solution out, and compared the sweetness intensity at that time with that of the aqueous sucrose standard solution, and evaluated the sweetness intensity with a number in a range of 0 to 15. The concentration of aspartame was prepared to have the same sweetness intensity as that of the aqueous sucrose solution (7.5 wt %) in accordance with the reference (Schiffman, S. S. et al. Chemical senses, 1999, 24, 439-447.). In addition, after 30 seconds, the examiners kept 10 mL pure water in their mouth, and then spat the solution out, and compared the sweetness intensity felt at that time with that of the aqueous sucrose standard solution, and evaluated the sweetness intensity in the same manner. Subsequently, the examiners were presented with 10 mL aqueous solution of aspartame containing 5 mM trans-3-octenyl sulfate (494 ppm), and kept it in their mouth for 5 seconds or so, and then spat the solution out, and compared the sweetness intensity at that time with the sweetness intensity of the sucrose standard solution, and evaluated the sweetness intensity in the same manner. In addition, after 30 seconds, the examiners kept 10 mL pure water in their mouth, and then spat the solution out, and compared the sweetness intensity felt at that time with that of the aqueous sucrose standard solution, and evaluated the sweetness intensity in the same manner. […]

Experiment [2] is described as follows: Evaluation of sweetness (1)/(2): presence or absence of sweetness judged by examiners. The method, then: Trans-3-octenyl sulfate was dissolved in water to be 1 wt %, which was taken as a test sample. Six examiners kept 50 μL of the prepared test sample in their mouth, and then drunk some water, and judged for presence or absence of sweetness.
Cis-3-octenyl sulfate was dissolved in water to 1 wt %, which was taken as a test sample. Four examiners kept 50 μL of the prepared test sample in their mouth, and then drunk some water, and judged presence or absence of sweetness.

Experiment [3] in a line: Evaluation of sweetness (3)/(4): sweetness intensity over time against sucrose standard solutions. The procedure: (§1) To seven examiners, 4 kinds of 10 mL aqueous sucrose standard solutions (2.5, 5.0, 7.5 and 10.0 wt %) were presented. The examiners kept each of the solutions in their mouth for 5 seconds or so, and then spat the solution out, and were asked to consider the sweetness intensity at that time (0 to 15) to be 2.5, 5, 7.5 and 10, respectively. Next, the examiners kept 10 mL solution of 10 mM trans-3-octenyl sulfate in their mouth for 5 seconds or so, and then spat the solution out, and compared the sweetness intensity at that time with that of the aqueous sucrose standard solution, and evaluated the sweetness intensity with a number in a range of 0 to 15. Then, the examiners kept 10 mL pure water for 5 minutes at an interval of 30 seconds, and then spat the solution out, and evaluated the sweetness intensity at that time in the same manner.
as §1, with “four” for “4”, “cis-3-octenyl” for “trans-3-octenyl”, “water in their mouth” for “water”

The nature of experiment [4]: Action of reinforcing sweetness (previous intake of trans-3-octenyl sulfate). Particulars: scale 0 to 15, six examiners. The procedure: To six examiners, 4 kinds of 10 mL aqueous solutions of sucrose standard (2.5, 5.0, 7.5 and 10.0 wt %) were presented. The examiners kept each of the solutions in their mouth for 5 seconds or so, and then spat the solution out, and were asked to consider the sweetness intensity at that time (0 to 15) to be 2.5, 5, 7.5 and 10, respectively. Next, the examiners kept 10 mL aqueous solution of sucralose (0.25 mM) in their mouth for 5 seconds or so without knowing the kind and the concentration of the sweetener, and then spat the solution out, and compared the sweetness intensity at that time with that of the aqueous sucrose standard solution, and evaluated the sweetness intensity with a number in a range of 0 to 15. Subsequently, the examiners kept 10 mL solution of 5 mM trans-3-octenyl sulfate in advance in their mouth for 5 seconds or so in advance, and then spat the solution out, and after passage of 60 seconds, the examiners kept 10 mL aqueous solution of sucralose (0.25 mM) in their mouth for 5 seconds or so, and then spat the solution out, and compared the sweetness intensity at that time with that of the aqueous sucrose standard solution, and evaluated the sweetness intensity with a number in a range of 0 to 15.
To six examiners, 4 kinds of 10 mL aqueous sucrose standard solutions (2.5, 5.0, 7.5 and 10.0 wt %) were presented. The examiners kept each of the solutions in their mouth for 5 seconds or so, and then spat the solution out, and were asked to consider the sweetness intensity at that time (0 to 15) to be 2.5, 5, 7.5 and 10, respectively. Next, the examiners kept 10 mL aqueous solution of glycyrrhizin (0.25 mM) in their mouth for 5 seconds or so without knowing the kind and the concentration of the sweetener, and then spat the solution out, and compared the sweetness intensity at that time with that of the aqueous sucrose standard solution, and evaluated the sweetness intensity with a number in a range of 0 to 15. Subsequently, the examiners kept 10 mL solution of 5 mM trans-3-octenyl sulfate in their mouth for 5 seconds or so in advance, and then spat the solution out, and after passage of 60 seconds, the examiners kept 10 mL aqueous solution of glycyrrhizin (0.25 mM) in their mouth for 5 seconds or so, and then spat the solution out, and compared the sweetness intensity at that time with that of the aqueous sucrose standard solution, and evaluated the sweetness intensity with a number in a range of 0 to 15.

Setting [5] is: 1 wt % in water, 50 μL kept in mouth, then water (13 ml), six examiners (trans), four examiners (cis).
[6] abbreviates: No previous intake of trans-3-octenyl sulfate, 10 mL sweetener 0.25 mM.
[7] abbreviates: Previous intake of 10 mL 5 mM trans-3-octenyl sulfate, 60 seconds before 10 mL sweetener 0.25 mM.

Structures can show the parent of a compound that is named as a salt. Residues, ends and D or L forms follow the SMILES beside them.

Take `OC[C@H]1O[C@@](CO)(O[C@H]2O[C@H](CO)[C@@H](O)[C@H](O)[C@H]2O)[C@@H](O)[C@@H]1O` [Sucrose, sucrose]: in experiment [1], the “Sweetness intensity (mean) When drinking water after 30 seconds” value (“Sweetness intensity … after 30 seconds” for short) is listed as 0.1 and the “Sweetness intensity (mean) When drinking sample” value worked out at 7.1.

Consider `CCCC/C=C\CCOS(=O)(=O)O` [cis-3-octenyl sulfate], for which, in experiment [2] (setting [5]), the “No sweetness felt (number of examiners)” value stood at 0. Also, in experiment [2] (setting [5]), the “Sweetness felt (number of examiners)” value is reported as 4. For the same molecule, the Duration of sweetness entry in experiment [2] (1 wt %, 50 μL, then water) is on record as “the sweetness lasted for a certain time”; in experiment [3] (10 mL of 10 mM solution, then pure water every 30 seconds for 5 minutes), “the sweetness lasted for a certain time”. Besides, the “Examiners who recognized the sweetness by virtue of intake of water” value in experiment [3] (10 mL of 10 mM solution, then pure water every 30 seconds) is “seven out of the seven”. For the same molecule, the “Sweetness intensity (mean)” value in experiment [3] (Time 0 minute, 10 mL of 10 mM solution kept 5 seconds, scale 0 to 15 vs sucrose standards, seven examiners) came to 0.0; in experiment [3] (Time 0.5 minute, on keeping 10 mL pure water, after 10 mM solution, scale 0 to 15), 1.8; in experiment [3] (Time 1 minute, on keeping 10 mL pure water, after 10 mM solution, scale 0 to 15), 3.2; in experiment [3] (Time 1.5 minute, on keeping 10 mL pure water, after 10 mM solution, scale 0 to 15), 3.4; in experiment [3] (Time 2 minute, on keeping 10 mL pure water, after 10 mM solution, scale 0 to 15) it was 2.6; in experiment [3] (Time 2.5 minute, on keeping 10 mL pure water, after 10 mM solution, scale 0 to 15) it was 2.1. Further, the “Sweetness intensity (mean)” value is 1.4 in experiment [3] (Time 3 minute, on keeping 10 mL pure water, after 10 mM solution, scale 0 to 15); 1.4 in experiment [3] (Time 3.5 minute, on keeping 10 mL pure water, after 10 mM solution, scale 0 to 15); 0.9 in experiment [3] (Time 4 minute, on keeping 10 mL pure water, after 10 mM solution, scale 0 to 15); 0.5 in experiment [3] (Time 4.5 minute, on keeping 10 mL pure water, after 10 mM solution, scale 0 to 15); 0.5 in experiment [3] (Time 5 minute, on keeping 10 mL pure water, after 10 mM solution, scale 0 to 15).

As to `COC(=O)[C@H](Cc1ccccc1)NC(=O)[C@@H](N)CC(=O)O` [Aspartame, aspartame] (H-Asp-Phe-OMe), in experiment [1], the “Sweetness intensity … after 30 seconds” value turned out to be 1.0 and the “Sweetness intensity (mean) When drinking sample” value turned out to be 7.1.

With `OC[C@H]1O[C@H](O[C@]2(CCl)O[C@H](CCl)[C@@H](O)[C@@H]2O)[C@H](O)[C@@H](O)[C@H]1Cl` [Sucralose, sucralose], in experiment [1], the “Sweetness intensity … after 30 seconds” value is listed as 0.4 and the “Sweetness intensity (mean) When drinking sample” value is reported as 8.4. For the same molecule, the “Sweetness intensity (mean)” value in experiment [4] (setting [6]) came out at 7.3. In experiment [4] (setting [7]), the “Sweetness intensity (mean)” value came out at 10.2.

Consider `CC1(C)[C@@H](O[C@H]2O[C@H](C(=O)O)[C@@H](O)[C@H](O)[C@H]2O[C@@H]2O[C@H](C(=O)O)[C@@H](O)[C@H](O)[C@H]2O)CC[C@]2(C)[C@H]3C(=O)C=C4[C@@H]5C[C@@](C)(C(=O)O)CC[C@]5(C)CC[C@@]4(C)[C@]3(C)CC[C@@H]12` [Glycyrrhizin, glycyrrhizin], for which, in experiment [1], the “Sweetness intensity … after 30 seconds” value amounted to 3.2 and the “Sweetness intensity (mean) When drinking sample” value was 4.1. Besides, in experiment [4] (setting [6]), the “Sweetness intensity (mean)” value turned out to be 3.4. For the same molecule, the “Sweetness intensity (mean)” value in experiment [4] (setting [7]) is reported as 7.3.
